What was measured:
[1] = target: T1, Staphylococcus aureus monofunctional glycosyltransferase (SaMGT) (Staphylococcus aureus, UniProt Q7A0I6, E100Q); assay: X-ray crystal structure, […] Å (re-refinement of 3HZS, polder omit maps); format: binding
T1 construct: gene mgt

[2] = target: T2, Staphylococcus aureus monofunctional glycosyltransferase (SaMGT) (Staphylococcus aureus, UniProt Q7A0I6); assay: ITC (VP-ITC, […] °C, sequential binding site model)
T2 construct: gene mgt; wild-type full-length SaMGT (residues Q28-R269)

How did the “X-ray crystal structure, 2.1 Å (re-refinement of 3HZS, polder omit maps)” value [1] turn out when `C=C(C/C=C(\C)CCC=C(C)C)CCC(C)(C)/C=C/CC/C(C)=C\CO[C@H](COP(=O)(O)O[C@H]1O[C@H](C(N)=O)[C@@](C)(O)[C@H](OC(N)=O)[C@H]1O[C@@H]1O[C@H](CO[C@@H]2O[C@H](CO)[C@@H](O)[C@H](O)[C@H]2O)[C@@H](O[C@@H]2O[C@H](C)[C@@H](O[C@@H]3O[C@H](C(=O)NC4=C(O)CCC4=O)[C@H](O)[C@H](O)[C@H]3O)[C@H](O)[C@H]2NC(C)=O)[C@H](O)[C@H]1NC(C)=O)C(=O)O` [MoeA, moenomycin A] was run?
The value was “Overall view of the re-refined structure of SaMGT E100Q mutant with bound MoeA (PDB ID code 6FTB)”.

And the Kd [2]?
The Kd was 540 nM.

Source: article PMC6053601, “The role of the jaw subdomain of peptidoglycan glycosyltransferases for lipid II polymerization” (The Cell Surface, 2018)
